Each block holds one compound with its values, some of them ahead of it.
Key:
[1] = Long-term accelerated aging of NaF(aq)-hybrid suspensions, fluoride availability by fluoride-sensitive electrode; type: physicochemical; details: supernatant, triplicate
Protocol: Long-term accelerated aging studies were performed on NaF(aq)-hybrid suspensions. The experiments were carried out in triplicate with 1 mL of each supernatant aspirated, mixed with 1 mL of TISAB II (1:1), and measured with a fluoride-sensitive electrode calibrated to known standards of 100, 950, and 1900 ppm fluoride.
The purpose of this study was to determine if the NaF(aq)-hybrid suspensions maintain sufficient fluoride availability. • 0.24% and 0.32% NaF systems were aged for 122 Days @ 40° C. • 0.05% NaF systems were aged for 119 Days @ 40° C. Results

[2] = In vitro remineralization/demineralization pH cycling study, Vickers surface microhardness of eroded enamel; set-up: species or system Bovine; details: change in Vickers microhardness relative to baseline
Protocol: An efficacy study was run in order to evaluate in multiple pH remin/demin cycling models the efficacy of calcium phosphate blends prepared as described above in remineralizing eroded enamel. These studies involved 226 ppm fluoride rinse systems.
The experiment design for the remineralization/demineralization pH cycling study is as follows. Bovine enamel specimens were extracted, ground, and polished. Initial erosion was performed by immersing each enamel specimen in 10 ml of 1% citric acid (pH=3.8) for 30 minutes. After the immersion, four baseline Vickers indentations under a 200 gf load for 15 seconds were made on each specimen and those with a Vickers microhardness number between 200 and 230 VHN were selected for the study. There were three groups in this study (N=10 specimens per group): • Group 1: negative control (DI water) • Group 2: positive control (226 ppm F) • Group 3: 226 ppm F plus 0.004% β-tricalcium phosphate-silica-carbamide
The cycling regimen consisted of five, two-minute/day acid challenges and three, two-minute treatments/day. In between treatments and acid challenges, each specimen was immersed in artificial mineral mix. This process was repeated up to 20 days, after which a post-cycle acid challenge was administered using 1% citric acid (pH=3.8) for 11 minutes. The specimens were evaluated for Vickers surface microhardness after 10 and 20 days as well as after the post-cycle acid challenge. The change in Vickers microhardness relative to baseline values was then used as the performance gauge. Remineralization efficacy was evaluated by comparing post surface Vickers microhardness numbers to baseline surface Vickers values. Means and standard deviations of the means were calculated and the Student Q-test was employed to assess accuracy of the individual specimen measurements within each group. […]
This cycling study evaluated the β-tricalcium phosphate-silica-carbamide blend when combined in a 226 ppm fluoride (NaF(aq)) solution and tested in a pH cycling model. […]

Mean ppm F ± Std. Dev ([1]; aged for 119 Days @ 40° C.): 231.7 ± 0.5 ppm F
Structure (SMILES): [F-].[Na+] [0.05% NaF Control]

Mean ppm F ± Std. Dev ([1]; aged for 122 Days @ 40° C.): 1080.7 ± 4.8 ppm F
Structure (SMILES): [F-].[Na+] [0.24% NaF Control]

Mean ppm F ± Std. Dev ([1]; aged for 122 Days @ 40° C.): 1493.3 ± 3.3 ppm F
Structure (SMILES): [F-].[Na+] [0.32% NaF Control]

Structure (SMILES): [F-].[Na+] [Group 2]
Mean ΔVHN ± SEM, after 10 days ([2]; 10 days pH cycling, N=10 specimens per group): 73.2 ± 7.0^2
Mean ΔVHN ± SEM, after 20 days ([2]; 20 days pH cycling, N=10 specimens per group): 67.6 ± 7.6^2
Mean ΔVHN ± SEM, after post-cycle acid challenge ([2]; after 11-minute post-cycle acid challenge, 1% citric acid pH 3.8): 81.9 ± 7.1^2

From patent US8568696B2, “Grinding method for the manipulation or preservation of calcium phosphate hybrid properties” (Indiana Nanotech LLC, priority 2008, dated 2013)
